Results as given in patent US20070281992A1, “COMBINATION OF GYRASE B INHIBITORS AND PROTEIN SYNTHESIS INHIBITORS AND USES THEREOF” (priority 2006, published 2007).
Where two headings read alike, the source gives them in different places.

Legend:
Type in all cases: cell-based
[1] = system: Vancomycin-intermediate Staphylococcus epidermidis Isolates; test: MIC assay (NCCLS broth dilution), VISE isolates
In short: (§1)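 Aqueous drug stocks (novobiocin 1600 μg/mL, others 640 μg/mL) sat one hour at room temperature before use. Agents were then diluted two-fold across 11 concentrations in Mueller Hinton II broth, and MICs were determined following NCCLS M7-A6.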

[2] = system: Methicillin-Resistant Staphylococcus aureus Isolates; test: MIC assay (NCCLS broth dilution), MRSA clinical isolates; conditions: for MIC: Staphylococcus aureus
In short: as §1

[3] = system: Methicillin-Susceptible Staphylococcus aureus Isolates; test: MIC assay (NCCLS broth dilution), MSSA clinical isolates
In short: as §1

**Q.** What does the source list for `CN[C@H](CC(C)C)C(=O)N[C@H]1C(=O)N[C@@H](CC(N)=O)C(=O)N[C@H]2C(=O)N[C@H]3C(=O)N[C@H](C(=O)N[C@H](C(=O)O)c4cc(O)cc(O)c4-c4cc3ccc4O)[C@H](O)c3ccc(c(Cl)c3)Oc3cc2cc(c3O[C@@H]2O[C@H](CO)[C@@H](O)[C@H](O)[C@H]2O[C@H]2C[C@](C)(N)[C@H](O)[C@H](C)O2)Oc2ccc(cc2Cl)[C@H]1O` [VA, vancomycin]?
**A.** MIC Range ([1]; 4 VISE isolates, combinations at 2.5:1): 8 µg/mL; MIC ([1]; Staphylococcus epidermidis, read-out: Minimal Inhibitory Concentration): 8 µg/mL; Minimal Inhibitory Concentration ([1]; VISE isolate 2020, 09MAR06): 8 µg/mL; Minimal Inhibitory Concentration ([1]; VISE isolate 2021, 09MAR06): 8 µg/mL; Minimal Inhibitory Concentration ([1]; VISE isolate 2023, 03MAR06): 8 µg/mL; MIC Range ([2]; 52 MRSA isolates, combinations at 2.5:1, given as NB/partner): .5 to 2 µg/mL; MIC ([2]; read-out: Minimal Inhibitory Concentration, MRSA isolate 757, 24FEB06): 1 µg/mL; MIC ([2]; read-out: Minimal Inhibitory Concentration, MRSA isolate 758, 03MAR06): 1 µg/mL; MIC ([2]; read-out: Minimal Inhibitory Concentration, MRSA isolate 758, 24FEB06): 1 µg/mL; MIC ([2]; read-out: Minimal Inhibitory Concentration, MRSA isolate 760, 03MAR06): 1 µg/mL; MIC ([2]; read-out: Minimal Inhibitory Concentration, MRSA isolate 760, 24FEB06): 1 µg/mL; MIC ([2]; read-out: Minimal Inhibitory Concentration, MRSA isolate 763, 22FEB06): 1 µg/mL; MIC ([2]; read-out: Minimal Inhibitory Concentration, MRSA isolate 765, 22FEB06): 0.5 µg/mL; MIC ([2]; read-out: Minimal Inhibitory Concentration, MRSA isolate 766, 22FEB06): 0.5 µg/mL; MIC ([2]; read-out: Minimal Inhibitory Concentration, MRSA isolate 767, 22FEB06): 0.5 µg/mL; MIC ([2]; read-out: Minimal Inhibitory Concentration, MRSA isolate 768, 22FEB06): 0.5 µg/mL; MIC ([2]; read-out: Minimal Inhibitory Concentration, MRSA isolate 769, 22FEB06): 0.5 µg/mL; MIC ([2]; read-out: Minimal Inhibitory Concentration, MRSA isolate 770, 22FEB06): 0.5 µg/mL; MIC ([2]; read-out: Minimal Inhibitory Concentration, MRSA isolate 771, 22FEB06): 1 µg/mL; MIC ([2]; read-out: Minimal Inhibitory Concentration, MRSA isolate 772, 22FEB06): 0.5 µg/mL; MIC ([2]; read-out: Minimal Inhibitory Concentration, MRSA isolate 773, 24FEB06): 0.5 µg/mL; MIC ([2]; read-out: Minimal Inhibitory Concentration, MRSA isolate 774, 24FEB06): 1 µg/mL; MIC ([2]; read-out: Minimal Inhibitory Concentration, MRSA isolate 775, 24FEB06): 1 µg/mL; MIC ([2]; read-out: Minimal Inhibitory Concentration, MRSA isolate 776, 24FEB06): 1 µg/mL; MIC ([2]; read-out: Minimal Inhibitory Concentration, MRSA isolate 777, 24FEB06): 0.5 µg/mL; MIC ([2]; read-out: Minimal Inhibitory Concentration, MRSA isolate 778, 24FEB06): 1 µg/mL; MIC ([2]; read-out: Minimal Inhibitory Concentration, MRSA isolate 886, 24FEB06): 1 µg/mL; MIC ([2]; read-out: Minimal Inhibitory Concentration, MRSA isolate 887, 24FEB06): 0.5 µg/mL; MIC ([2]; read-out: Minimal Inhibitory Concentration, MRSA isolate 888, 24FEB06): 1 µg/mL; MIC ([2]; read-out: Minimal Inhibitory Concentration, MRSA isolate 889, 24FEB06): 1 µg/mL; MIC ([2]; read-out: Minimal Inhibitory Concentration, MRSA isolate 1004, 24FEB06): 1 µg/mL; MIC ([2]; read-out: Minimal Inhibitory Concentration, MRSA isolate 1010, 22FEB06): 0.5 µg/mL; MIC ([2]; read-out: Minimal Inhibitory Concentration, MRSA isolate 1012, 22FEB06): 0.5 µg/mL; MIC ([2]; read-out: Minimal Inhibitory Concentration, MRSA isolate 1013, 22FEB06): 0.5 µg/mL; MIC ([2]; read-out: Minimal Inhibitory Concentration, MRSA isolate 1014, 22FEB06): 0.5 µg/mL; MIC ([2]; read-out: Minimal Inhibitory Concentration, MRSA isolate 1015, 22FEB06): 0.5 µg/mL; MIC ([2]; read-out: Minimal Inhibitory Concentration, MRSA isolate 1016, 22FEB06): 0.5 µg/mL; MIC ([2]; read-out: Minimal Inhibitory Concentration, MRSA isolate 1017, 22FEB06): 0.5 µg/mL; MIC ([2]; read-out: Minimal Inhibitory Concentration, MRSA isolate 1021, 22FEB06): 0.5 µg/mL; MIC ([2]; read-out: Minimal Inhibitory Concentration, MRSA isolate 1022, 22FEB06): 0.5 µg/mL; MIC ([2]; read-out: Minimal Inhibitory Concentration, MRSA isolate 1023, 22FEB06): 0.5 µg/mL; MIC ([2]; read-out: Minimal Inhibitory Concentration, MRSA isolate 1024, 22FEB06): 0.5 µg/mL; MIC ([2]; read-out: Minimal Inhibitory Concentration, MRSA isolate 1025, 22FEB06): 1 µg/mL; MIC ([2]; read-out: Minimal Inhibitory Concentration, MRSA isolate 1135, 22FEB06): 0.5 µg/mL; MIC ([2]; read-out: Minimal Inhibitory Concentration, MRSA isolate 1136, 22FEB06): 0.5 µg/mL; MIC ([2]; read-out: Minimal Inhibitory Concentration, MRSA isolate 1137, 22FEB06): 0.5 µg/mL; MIC ([2]; read-out: Minimal Inhibitory Concentration, MRSA isolate 1138, 22FEB06): 0.5 µg/mL; MIC ([2]; read-out: Minimal Inhibitory Concentration, MRSA isolate 1222, 03MAR06): 1 µg/mL; MIC ([2]; read-out: Minimal Inhibitory Concentration, MRSA isolate 1222, 24FEB06): 1 µg/mL; MIC ([2]; read-out: Minimal Inhibitory Concentration, MRSA isolate 1653, 03MAR06): 1 µg/mL; MIC ([2]; read-out: Minimal Inhibitory Concentration, MRSA isolate 1658, 03MAR06): 0.5 µg/mL; MIC ([2]; read-out: Minimal Inhibitory Concentration, MRSA isolate 1659, 03MAR06): 1 µg/mL; MIC ([2]; read-out: Minimal Inhibitory Concentration, MRSA isolate 1661, 03MAR06): 1 µg/mL; MIC ([2]; read-out: Minimal Inhibitory Concentration, MRSA isolate 1729, 03MAR06): 2 µg/mL; MIC ([2]; read-out: Minimal Inhibitory Concentration, MRSA isolate 1730, 24FEB06): 1 µg/mL; MIC ([2]; read-out: Minimal Inhibitory Concentration, MRSA isolate 2009, 24FEB06): 2 µg/mL; MIC ([2]; read-out: Minimal Inhibitory Concentration, MRSA isolate 2010, 24FEB06): 0.5 µg/mL; MIC ([2]; read-out: Minimal Inhibitory Concentration, MRSA isolate 2011, 24FEB06): 1 µg/mL; MIC Range ([3]; 52 MSSA isolates, Mueller Hinton II Broth, combinations at 2.5:1, given as NB/partner): .5 to 1 µg/mL; MIC ([3]; Staphylococcus aureus, read-out: Minimal Inhibitory Concentration, MSSA isolate 133, 03MAR06): 0.5 µg/mL
